Source: BindingDB's records for doi:10.1016/j.bmc.2013.06.038 (Jagiellonian University Medical College, 2013)

Assays:
[1] = molecular target: T1, Sodium- and chloride-dependent GABA transporter 3 (Mus musculus, UniProt P31650); assay: Inhibition of mouse GAT3-mediated [3H]GABA uptake stably transfected in HEK293 cells
T1 sequence (P31650 whole entry): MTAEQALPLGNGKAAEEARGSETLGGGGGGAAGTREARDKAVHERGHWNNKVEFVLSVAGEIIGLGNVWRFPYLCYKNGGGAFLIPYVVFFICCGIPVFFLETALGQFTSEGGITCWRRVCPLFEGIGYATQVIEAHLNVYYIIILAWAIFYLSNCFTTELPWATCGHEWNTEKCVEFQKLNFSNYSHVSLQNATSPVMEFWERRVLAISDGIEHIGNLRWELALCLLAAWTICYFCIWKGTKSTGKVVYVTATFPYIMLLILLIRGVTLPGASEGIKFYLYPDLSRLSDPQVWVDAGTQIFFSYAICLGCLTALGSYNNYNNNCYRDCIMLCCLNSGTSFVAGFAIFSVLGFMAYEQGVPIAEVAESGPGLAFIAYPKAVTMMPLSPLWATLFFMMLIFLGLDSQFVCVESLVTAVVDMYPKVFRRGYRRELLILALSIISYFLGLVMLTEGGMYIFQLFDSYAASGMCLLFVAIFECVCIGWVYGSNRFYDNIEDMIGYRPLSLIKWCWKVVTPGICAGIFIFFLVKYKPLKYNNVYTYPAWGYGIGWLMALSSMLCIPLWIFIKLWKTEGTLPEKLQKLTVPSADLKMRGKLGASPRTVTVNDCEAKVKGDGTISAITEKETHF

[2] = molecular target: T2, Sodium- and chloride-dependent GABA transporter 2 (Mus musculus, UniProt P31649); assay: Inhibition of mouse GAT2-mediated [3H]GABA uptake stably transfected in HEK293 cells
T2 sequence (P31649 whole entry): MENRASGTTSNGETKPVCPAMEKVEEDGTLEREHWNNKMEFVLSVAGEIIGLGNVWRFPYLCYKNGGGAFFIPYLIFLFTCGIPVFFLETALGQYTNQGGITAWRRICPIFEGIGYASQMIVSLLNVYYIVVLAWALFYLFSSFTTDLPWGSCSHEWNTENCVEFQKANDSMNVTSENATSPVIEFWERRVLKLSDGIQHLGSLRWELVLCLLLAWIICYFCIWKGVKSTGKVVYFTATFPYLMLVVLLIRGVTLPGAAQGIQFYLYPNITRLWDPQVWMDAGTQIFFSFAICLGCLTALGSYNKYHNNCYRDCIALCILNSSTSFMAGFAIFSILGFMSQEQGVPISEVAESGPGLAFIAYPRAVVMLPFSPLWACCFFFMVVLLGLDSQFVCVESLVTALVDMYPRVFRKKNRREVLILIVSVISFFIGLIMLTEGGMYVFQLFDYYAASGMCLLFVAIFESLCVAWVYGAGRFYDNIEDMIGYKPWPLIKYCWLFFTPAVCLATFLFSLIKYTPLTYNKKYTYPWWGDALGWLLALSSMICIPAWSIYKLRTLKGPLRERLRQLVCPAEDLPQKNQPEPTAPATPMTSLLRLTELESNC

| Compound | IC50 [1] | IC50 [2] |
| --- | --- | --- |
| O=C(NCc1ccccc1Cl)C(CCO)N1CCC(=C(c2ccccc2)c2ccccc2)CC1 (centres undefined) | 56.2 µM | 75.9 µM |
| CN(CCCC(c1ccccc1)c1ccccc1)C(CCO)C(=O)NCc1ccc(F)cc1 (centres undefined) | 38.9 µM | 41.7 µM |
| O=C(NCc1ccc(F)cc1)C(CCO)NCCCC(c1ccccc1)c1ccccc1 (centres undefined) | 22.9 µM | 26.9 µM |
| C[C@@H](O)C[C@H](C(=O)NCc1ccccc1)N1CCC(=C(c2ccccc2)c2ccccc2)CC1 | 21.9 µM | 49 µM |
| O=C(NCc1ccc(Cl)cc1)C(CCO)NCCCC(c1ccccc1)c1ccccc1 (centres undefined) | 14.8 µM | 11 µM |
| CN(CCC=C(c1ccccc1)c1ccccc1)C(CCO)C(=O)NCc1ccc(Cl)cc1 (centres undefined) | 9.55 µM | 13.2 µM |
| Cc1ccc(CNC(=O)[C@@H](C[C@H](C)O)N2CCC(=C(c3ccccc3)c3ccccc3)CC2)cc1 |  | 50.1 µM |
| O=C(NCc1ccc(Cl)cc1)C(CCO)N1CCC(=C(c2ccccc2)c2ccccc2)CC1 (centres undefined) |  | 19.5 µM |
| O=C(NCc1ccccc1Cl)C(CCO)NCCCC(c1ccccc1)c1ccccc1 (centres undefined) | 18.2 µM |  |
| Cc1ccc(CNC(=O)C(CCO)NCCCC(c2ccccc2)c2ccccc2)cc1 (centres undefined) |  | 17 µM |
| Cc1ccc(CNC(=O)C(CCO)N(C)CCCC(c2ccccc2)c2ccccc2)cc1 (centres undefined) |  | 28.8 µM |
| CN(CCCC(c1ccccc1)c1ccccc1)C(CCO)C(=O)NCc1ccccc1Cl (centres undefined) | 16.2 µM | 28.8 µM |
| Cc1ccc(CNC(=O)C(CCO)N(C)CCC=C(c2ccccc2)c2ccccc2)cc1 (centres undefined) | 11.7 µM | 14.5 µM |
| CN(CCC=C(c1ccccc1)c1ccccc1)C(CCO)C(=O)NCc1ccccc1Cl (centres undefined) |  | 12.6 µM |
| CN(CCC=C(c1ccccc1)c1ccccc1)C(CCO)C(=O)NCc1ccccc1 (centres undefined) | 13.5 µM | 26.9 µM |
| C[C@H](O)C[C@H](C(=O)NCc1ccccc1)N1CCC(=C(c2ccccc2)c2ccccc2)CC1 | 30.9 µM | 61.7 µM |
| O=C(NCc1ccccc1Cl)C(CCO)N1CCC(C(c2ccccc2)c2ccccc2)CC1 (centres undefined) | 36.3 µM | 49 µM |

| Compound | IC50 [1] | IC50 [2] |
| --- | --- | --- |
| O=C(NCc1ccccc1)C(CCO)N1CCC(C(c2ccccc2)c2ccccc2)CC1 (centres undefined) | 41.7 µM |  |
| O=C(NCc1ccccc1)C(CCO)NCCCC(c1ccccc1)c1ccccc1 (centres undefined) | 35.5 µM | 28.8 µM |
| Cc1ccc(CNC(=O)[C@@H](C[C@@H](C)O)N2CCC(=C(c3ccccc3)c3ccccc3)CC2)cc1 | 57.5 µM | 24 µM |
| C[C@H](O)C[C@H](C(=O)NCc1ccc(Cl)cc1)N1CCC(=C(c2ccccc2)c2ccccc2)CC1 | 42.7 µM |  |
| Cc1ccc(CNC(=O)C(CCO)N2CCC(C(c3ccccc3)c3ccccc3)CC2)cc1 (centres undefined) | 42.7 µM | 38 µM |
| Cc1ccc(CNC(=O)C(CCO)N2CCC(=C(c3ccccc3)c3ccccc3)CC2)cc1 (centres undefined) |  | 30.9 µM |
| O=C(NCc1ccccc1)C(CCO)N1CCC(=C(c2ccccc2)c2ccccc2)CC1 (centres undefined) | 37.2 µM | 46.8 µM |
| CN(CCCC(c1ccccc1)c1ccccc1)C(CCO)C(=O)NCc1ccccc1 (centres undefined) | 32.4 µM | 39.8 µM |
| C[C@H](O)C[C@H](C(=O)NCc1ccc(F)cc1)N1CCC(=C(c2ccccc2)c2ccccc2)CC1 | 55 µM | 100 µM |
| C[C@@H](O)C[C@H](C(=O)NCc1ccc(F)cc1)N1CCC(=C(c2ccccc2)c2ccccc2)CC1 | 26.9 µM | 64.6 µM |
| O=C(NCc1ccc(F)cc1)C(CCO)N1CCC(=C(c2ccccc2)c2ccccc2)CC1 (centres undefined) | 28.2 µM | 16.6 µM |
| CN(CCC=C(c1ccccc1)c1ccccc1)C(CCO)C(=O)NCc1ccc(F)cc1 (centres undefined) | 11.2 µM |  |
| O=C(NCc1ccc(Cl)cc1)C(CCO)N1CCC(C(c2ccccc2)c2ccccc2)CC1 (centres undefined) | 32.4 µM | 60.3 µM |
| CN(CCCC(c1ccccc1)c1ccccc1)C(CCO)C(=O)NCc1ccc(Cl)cc1 (centres undefined) | 13.2 µM |  |
| C[C@H](O)C[C@H](C(=O)NCc1ccccc1Cl)N1CCC(=C(c2ccccc2)c2ccccc2)CC1 | 28.8 µM |  |
| O=C(NCc1ccc(F)cc1)C(CCO)N1CCC(C(c2ccccc2)c2ccccc2)CC1 (centres undefined) | 34.7 µM | 55 µM |
